Tests used:
Experiment in all cases: cell-based
CfEcR-DEF mutant L132M = CfEcR-DEF mutant L132M (Choristoneura fumiferana, UniProt O77255, L415M); format: cell-based; settings: mutant L132M
Procedure: (§1) This construct was prepared in the same way as in switch 1.1 above except wild-type CfEcR-DEF was replaced with mutant CfEcR-DEF comprising a ligand binding domain comprising a substitution mutation selected from Table 1 below.
(§2) DNAs were transfected into mouse NIH3T3 cells (ATCC) as follows. Standard methods for culture and maintenance of the cells were followed. Cells were harvested and plated 96-well plates at 2,500 cells per well, in 50 μL of growth medium containing 10% fetal bovine serum (FBS). Twenty-four hours later, the cells were treated with 35 μL of serum-free growth medium containing either dimethylsulfoxide (DMSO; control) or a DMSO solution of ligand. The cells were then transfected using Superfect (Qiagen Inc.) transfection reagent. For each well, 0.625 μL of Superfect was mixed with 14.2 μL of serum-free growth medium. 0.16 μg of reporter construct and 0.04 μg of each receptor construct were added to the transfection reagent mix. The contents of the transfection mix were mixed in a vortex mixer and let stand at room temperature for 30 minutes. At the end of incubation, 15 μL of transfection mix was added to the cells. The cells were maintained at 37° C. and 5% CO2 for 48 hours in 5% FBS.
(§3) Reporter Assays: Cells were harvested 40 hours after adding ligands. 125 μL of passive lysis buffer (part of Dual-Luciferase reporter assay system from Promega Corporation) were added to each well of the […] plate. The plates were placed on a rotary shaker for 15 minutes. Twenty μL of lysate were assayed. Luciferase activity was measured using Dual-Luciferase reporter assay system from Promega Corporation following the manufacturer's instructions. Fold induction (FI) activities were calculated by dividing relative light units (“RLU”) in ligand treated cells with RLU in DMSO treated cells (untreated control).

CfEcR-DEF mutant A110E = CfEcR-DEF mutant A110E (Choristoneura fumiferana, UniProt O77255, A393E); settings: mutant A110E; for EC50: read-out: EC50; for Rel Max FI: relative to max fold induction of GS-E ligand
Procedure: as §1, §2, §3

CfEcR-DEF mutant M125P = CfEcR-DEF mutant M125P (Choristoneura fumiferana, UniProt O77255, M408P); settings: mutant M125P; for EC50: read-out: EC50
Procedure: as §1, §2, §3

CfEcR-DEF mutant T52L = CfEcR-DEF mutant T52L (Choristoneura fumiferana, UniProt O77255, T335L); settings: mutant T52L; for EC50: read-out: EC50; for Rel Max FI: relative to max fold induction of GS-E ligand
Procedure: as §1, §2, §3

CfEcR-DEF mutant L234I = CfEcR-DEF mutant L234I (Choristoneura fumiferana, UniProt O77255, L517I); settings: mutant L234I; for EC50: read-out: EC50
Procedure: as §1, §2, §3

CfEcR-DEF mutant L132V = CfEcR-DEF mutant L132V (Choristoneura fumiferana, UniProt O77255, L415V); settings: mutant L132V; for EC50: read-out: EC50; for Rel Max FI: relative to max fold induction of GS-E ligand
Procedure: as §1, §2, §3

[1] = target: CfEcR-DEF mutant V128F/A110P (Choristoneura fumiferana, UniProt O77255, A393P/V411F); settings: mutant V128F/A110P; for EC50: read-out: EC50
Procedure: as §1, §2, §3

CfEcR-DEF mutant V96S = CfEcR-DEF mutant V96S (Choristoneura fumiferana, UniProt O77255, V379S); settings: mutant V96S; for EC50: read-out: EC50; for Rel Max FI: relative to max fold induction of GS-E ligand
Procedure: as §1, §2, §3

CfEcR-DEF mutant R95H = CfEcR-DEF mutant R95H (Choristoneura fumiferana, UniProt O77255, R378H); settings: mutant R95H; for EC50: read-out: EC50
Procedure: as §1, §2, §3

[2] = target: CfEcR-DEF mutant N119F/V96T (Choristoneura fumiferana, UniProt O77255, N402F/V379T); settings: mutant N119F/V96T; for EC50: read-out: EC50; for Rel Max FI: relative to max fold induction of GS-E ligand
Procedure: as §1, §2, §3

CfEcR-DEF mutant F109L = CfEcR-DEF mutant F109L (Choristoneura fumiferana, UniProt O77255, F392L); settings: mutant F109L; for EC50: read-out: EC50
Procedure: as §1, §2, §3

CfEcR-DEF mutant M54T = CfEcR-DEF mutant M54T (Choristoneura fumiferana, UniProt O77255, M337T); settings: mutant M54T; for EC50: read-out: EC50; for Rel Max FI: relative to max fold induction of GS-E ligand
Procedure: as §1, §2, §3

CfEcR-DEF mutant M125R = CfEcR-DEF mutant M125R (Choristoneura fumiferana, UniProt O77255, M408R); settings: mutant M125R; for EC50: read-out: EC50
Procedure: as §1, §2, §3

CfEcR-DEF mutant M125L = CfEcR-DEF mutant M125L (Choristoneura fumiferana, UniProt O77255, M408L); settings: mutant M125L; for EC50: read-out: EC50
Procedure: as §1, §2, §3

[3] = target: CfEcR-DEF mutant V107I/Y127E/A110P (Choristoneura fumiferana, UniProt O77255, A393P/V390I/Y410E); settings: mutant V107I/Y127E/A110P; for EC50: read-out: EC50; for Rel Max FI: relative to max fold induction of GS-E ligand
Procedure: as §1, §2, §3

CfEcR-DEF mutant M92E = CfEcR-DEF mutant M92E (Choristoneura fumiferana, UniProt O77255, M375E); settings: mutant M92E; for EC50: read-out: EC50
Procedure: as §1, §2, §3

CfEcR-DEF mutant M125C = CfEcR-DEF mutant M125C (Choristoneura fumiferana, UniProt O77255, M408C); settings: mutant M125C
Procedure: as §1, §2, §3

CfEcR-DEF mutant F109W = CfEcR-DEF mutant F109W (Choristoneura fumiferana, UniProt O77255, F392W); settings: mutant F109W; for EC50: read-out: EC50; for Rel Max FI: relative to max fold induction of GS-E ligand
Procedure: as §1, §2, §3

[4] = relative to max fold induction of GS-E ligand

CfEcR-DEF mutant L132V, sequence (O77255 entry or part of it L415V): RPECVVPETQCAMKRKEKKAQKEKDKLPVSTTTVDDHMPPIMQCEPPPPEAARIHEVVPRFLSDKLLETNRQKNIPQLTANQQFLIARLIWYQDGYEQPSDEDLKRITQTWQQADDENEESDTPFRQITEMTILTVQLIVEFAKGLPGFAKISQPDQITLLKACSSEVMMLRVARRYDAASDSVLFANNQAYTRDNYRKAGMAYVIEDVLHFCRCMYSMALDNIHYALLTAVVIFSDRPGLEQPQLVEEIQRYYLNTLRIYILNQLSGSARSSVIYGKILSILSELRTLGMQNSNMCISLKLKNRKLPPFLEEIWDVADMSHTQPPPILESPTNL
CfEcR-DEF mutant L132V, sequence (P28702 298-449, further chain): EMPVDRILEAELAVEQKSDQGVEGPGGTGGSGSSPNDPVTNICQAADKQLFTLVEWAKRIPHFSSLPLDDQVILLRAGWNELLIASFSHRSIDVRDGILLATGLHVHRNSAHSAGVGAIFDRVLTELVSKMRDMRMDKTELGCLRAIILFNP
CfEcR-DEF mutant M54T, sequence (O77255 entry or part of it M337T): as the sequence (O77255 entry or part of it L415V) above, with M131T, V209L counted along it
CfEcR-DEF mutant M54T, sequence (P28702 299-449, further chain): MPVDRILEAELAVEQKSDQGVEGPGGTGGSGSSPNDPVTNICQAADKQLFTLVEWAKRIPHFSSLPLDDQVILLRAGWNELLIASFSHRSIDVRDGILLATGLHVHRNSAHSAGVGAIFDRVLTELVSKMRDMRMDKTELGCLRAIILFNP
CfEcR-DEF mutant T52L, sequence (P28702 298-449): as the sequence (P28702 298-449, further chain) above
CfEcR-DEF mutant T52L, sequence (O77255 entry or part of it T335L): as the sequence (O77255 entry or part of it L415V) above, with T129L, V209L counted along it
CfEcR-DEF mutant F109W, sequence (O77255 entry or part of it F392W): as the sequence (O77255 entry or part of it L415V) above, with F186W, V209L counted along it
CfEcR-DEF mutant F109W, sequence (P28702 299-449, further chain): as the sequence (P28702 299-449, further chain) above
CfEcR-DEF mutant N119F/V96T, sequence (O77255 entry or part of it V379T/N402F): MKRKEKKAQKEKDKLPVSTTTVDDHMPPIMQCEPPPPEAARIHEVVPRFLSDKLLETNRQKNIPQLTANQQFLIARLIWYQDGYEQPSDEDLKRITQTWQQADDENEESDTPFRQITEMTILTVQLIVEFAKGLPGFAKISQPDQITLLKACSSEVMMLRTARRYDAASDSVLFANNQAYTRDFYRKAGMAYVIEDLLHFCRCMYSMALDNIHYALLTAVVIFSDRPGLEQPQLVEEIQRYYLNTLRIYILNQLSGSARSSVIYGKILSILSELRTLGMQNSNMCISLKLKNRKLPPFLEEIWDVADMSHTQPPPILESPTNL
CfEcR-DEF mutant N119F/V96T, sequence (P28702 299-449, further chain): as the sequence (P28702 299-449, further chain) above
CfEcR-DEF mutant V96S, sequence (O77255 entry or part of it V379S): as the sequence (O77255 entry or part of it V379T/N402F) above, with T161S, F184N counted along it
CfEcR-DEF mutant V96S, sequence (P28702 299-449, further chain): as the sequence (P28702 299-449, further chain) above
CfEcR-DEF mutant L132M, sequence (O77255 entry or part of it L415M): as the sequence (O77255 entry or part of it L415V) above, with V209M counted along it
CfEcR-DEF mutant L132M, sequence (P28702 298-449, further chain): as the sequence (P28702 298-449, further chain) above
CfEcR-DEF mutant M125L, sequence (P28702 299-449): as the sequence (P28702 299-449, further chain) above
CfEcR-DEF mutant M125L, sequence (O77255 entry or part of it M408L): as the sequence (O77255 entry or part of it V379T/N402F) above, with T161V, F184N, M190L counted along it
CfEcR-DEF mutant M125R, sequence (P28702 299-449): as the sequence (P28702 299-449, further chain) above
CfEcR-DEF mutant M125R, sequence (O77255 entry or part of it M408R): as the sequence (O77255 entry or part of it V379T/N402F) above, with T161V, F184N, M190R counted along it
CfEcR-DEF mutant V128F/A110P, sequence (P28702 299-449, stated change not applied): as the sequence (P28702 299-449, further chain) above
CfEcR-DEF mutant V128F/A110P, sequence (O77255 entry or part of it A393P/V411F): as the sequence (O77255 entry or part of it V379T/N402F) above, with T161V, A175P, F184N, V193F counted along it
CfEcR-DEF mutant M92E, sequence (P28702 299-449): as the sequence (P28702 299-449, further chain) above
CfEcR-DEF mutant M92E, sequence (O77255 entry or part of it M375E): as the sequence (O77255 entry or part of it L415V) above, with M169E, V209L counted along it
CfEcR-DEF mutant L234I, sequence (P28702 299-449): as the sequence (P28702 299-449, further chain) above
CfEcR-DEF mutant L234I, sequence (O77255 entry or part of it L517I): as the sequence (O77255 entry or part of it L415V) above, with V209L, L311I counted along it
CfEcR-DEF mutant A110E, sequence (P28702 299-449, stated change not applied): as the sequence (P28702 299-449, further chain) above
CfEcR-DEF mutant A110E, sequence (O77255 entry or part of it A393E): as the sequence (O77255 entry or part of it L415V) above, with A187E, V209L counted along it
CfEcR-DEF mutant M125P, sequence (P28702 299-449): as the sequence (P28702 299-449, further chain) above
CfEcR-DEF mutant M125P, sequence (O77255 entry or part of it M408P): as the sequence (O77255 entry or part of it V379T/N402F) above, with T161V, F184N, M190P counted along it
CfEcR-DEF mutant V107I/Y127E/A110P, sequence (P28702 299-449, stated change not applied): as the sequence (P28702 299-449, further chain) above
CfEcR-DEF mutant V107I/Y127E/A110P, sequence (O77255 entry or part of it V390I/A393P/Y410E): as the sequence (O77255 entry or part of it V379T/N402F) above, with T161V, V172I, A175P, F184N, Y192E counted along it
CfEcR-DEF mutant F109L, sequence (P28702 299-449): as the sequence (P28702 299-449, further chain) above
CfEcR-DEF mutant F109L, sequence (O77255 entry or part of it F392L): as the sequence (O77255 entry or part of it L415V) above, with F186L, V209L counted along it
CfEcR-DEF mutant R95H, sequence (P28702 299-449): as the sequence (P28702 299-449, further chain) above
CfEcR-DEF mutant R95H, sequence (O77255 entry or part of it R378H): as the sequence (O77255 entry or part of it V379T/N402F) above, with R160H, T161V, F184N counted along it
CfEcR-DEF mutant M125C, sequence (O77255 entry or part of it M408C): as the sequence (O77255 entry or part of it L415V) above, with M202C, V209L counted along it
CfEcR-DEF mutant M125C, sequence (P28702 299-449, further chain): as the sequence (P28702 299-449, further chain) above

| SMILES | Rel Max FI (CfEcR-DEF mutant L132M) | Rel Max FI (CfEcR-DEF mutant L132M; [4]) | EC50 (CfEcR-DEF mutant A110E) | Rel Max FI (CfEcR-DEF mutant A110E) | Rel Max FI (CfEcR-DEF mutant M125P) | EC50 (CfEcR-DEF mutant M125P) | EC50 (CfEcR-DEF mutant T52L) | Rel Max FI (CfEcR-DEF mutant T52L) | Rel Max FI (CfEcR-DEF mutant L234I) | EC50 (CfEcR-DEF mutant L234I) | EC50 (CfEcR-DEF mutant L132V) | Rel Max FI (CfEcR-DEF mutant L132V) | Rel Max FI [1] | EC50 [1] | Rel Max FI [1, 4] | EC50 (CfEcR-DEF mutant V96S) | Rel Max FI (CfEcR-DEF mutant V96S) | Rel Max FI (CfEcR-DEF mutant R95H) | EC50 (CfEcR-DEF mutant R95H) | EC50 [2] | also measured |
| --- | --- | --- | --- | --- | --- | --- | --- | --- | --- | --- | --- | --- | --- | --- | --- | --- | --- | --- | --- | --- | --- |
| CC(C)(O)CC[C@@H](O)[C@](C)(O)[C@H]1CC[C@@]2(O)C3=CC(=O)[C@@H]4C[C@@H](O)[C@@H](O)C[C@]4(C)[C@H]3CC[C@]12C [20E, 20-hydroxyecdysone] | 0.01 | 0 | > 33 µM | 0 | 1.29 | > 33 µM | > 33 µM | 0 | 0 | > 33 µM | > 33 µM | 0 | 0 | > 33 µM | 0.00 | > 33 µM | 0.02 | 0 | > 33 µM | ~8 µM | EC50 (CfEcR-DEF mutant L132M): > 33 µM; Rel Max FI [2]: 0.46; Rel Max FI (CfEcR-DEF mutant F109L): 0.09; EC50 (CfEcR-DEF mutant F109L): > 33 µM; EC50 (CfEcR-DEF mutant M54T): > 33 µM; Rel Max FI (CfEcR-DEF mutant M54T): 0; Rel Max FI (CfEcR-DEF mutant M125R): 0.01; EC50 (CfEcR-DEF mutant M125R): > 33 µM; Rel Max FI (CfEcR-DEF mutant M125L): 0; EC50 (CfEcR-DEF mutant M125L): > 33 µM; EC50 [3]: > 33 µM; Rel Max FI [3]: 0.00; Rel Max FI (CfEcR-DEF mutant M92E): 0; EC50 (CfEcR-DEF mutant M92E): > 33 µM; Rel Max FI (CfEcR-DEF mutant M125C): 0.22; EC50 (CfEcR-DEF mutant F109W): > 33 µM; Rel Max FI (CfEcR-DEF mutant F109W): 0 |
| CC(C)CC[C@@H](O)[C@](C)(O)[C@H]1CC[C@@]2(O)C3=CC(=O)[C@@H]4C[C@@H](O)[C@@H](O)C[C@]4(C)[C@H]3CC[C@]12C [PonA, ponasterone A] | 0.01 | 0.57 | ~10 µM | 1.09 | 0.7 | > 33 µM | 5.03 µM | 0.54 | 0.56 | ~7 µM | 6.56 µM | 0.57 | 0 | > 33 µM | 0.00 | ~2 µM | 0.92 | 0.03 | > 33 µM | ~0.3 µM | Rel Max FI [2]: 2.02; Rel Max FI (CfEcR-DEF mutant F109L): 0.03; EC50 (CfEcR-DEF mutant F109L): > 33 µM; EC50 (CfEcR-DEF mutant M54T): 9.46 µM; Rel Max FI (CfEcR-DEF mutant M54T): 0.5; Rel Max FI (CfEcR-DEF mutant M125R): 0; EC50 (CfEcR-DEF mutant M125R): ~8 µM; Rel Max FI (CfEcR-DEF mutant M125L): 0; EC50 (CfEcR-DEF mutant M125L): > 33 µM; EC50 [3]: > 33 µM; Rel Max FI [3]: 0.01; Rel Max FI (CfEcR-DEF mutant M92E): 0.01; EC50 (CfEcR-DEF mutant M92E): > 33 µM; Rel Max FI (CfEcR-DEF mutant M125C): 0.28; EC50 (CfEcR-DEF mutant F109W): 4.06 µM; Rel Max FI (CfEcR-DEF mutant F109W): 0.08 |
